Data set [1] in a line: P26 in aqueous solution, without enzymes. Particulars: 37 °C, up to 7 days.
The test system of another data set is α-amylase. In words: Peptide stability in artificial saliva with α-amylase (HPLC). The data set is classed as in vitro ADME. Conditions: 37 °C. The method, then:
(§1) Solutions of MMP8, MMP1 (R&D systems, Minneapolis, MN, USA), α-amylase, and lysozyme (Sigma, Burlington, MA, USA) were prepared following the manufacturer’s instructions. Prior to each use, pro-MMP1 and pro-MMP8 were activated with 10 mM APMA according to the manufacturer’s protocol (R&D Systems). Successful cleavage of both enzymes into their active form was confirmed using SDS-PAGE gel electrophoresis. To better mimic in vivo oral conditions, all enzymes were used at concentrations found in healthy individuals, as reported in the literature: MMP8 (final 0.286 μg/mL; [30], MMP1 (final 20 pg/mL [31], α-amylase (final 119 U/mL; [32], and lysozyme (final 0.4 μg/mL [30]. A total of 125 μL of aqueous P26 or P26-CS solutions (0.2 mg/mL final) was added to an equal volume of artificial saliva (AS; 1.2 mM CaCl2·2H2O, 50 mM HEPES buffer, 0.72 mM KH2PO4, 16 mM KCl, 4.5 mM NH4Cl, 0.2 mM MgCl2·6H20, and 1 ppm NaF). Then, the enzymes were mixed in and immediately placed in a water bath at 37 °C. An initial collection was (t = 0) carried out and analyzed by Reverse-phase High-Performance Liquid Chromatography (HPLC), as described below. Incubations for each sample were performed in triplicate. To quantify the effect of each enzyme, individual enzymes were incubated with 125 μL of P26-CS and 125 μL of AS. […]

Data set [2] can be described thus: Self-degradation of P26 without enzymes (LC/MS). The data set is classed as physicochemical. Particulars: P26 solution 0.2 mg/mL, 37 °C, 7 days. As for the experimental part:
P26 amelogenin peptide was synthetized by Biomer Technology (San Francisco, CA, USA). P26 solutions (0.2 mg/mL) were prepared as previously described and incubated at 37 °C for 7 days and subsequently analyzed by liquid chromatography/mass spectrometry (LC/MS; Scripps Research Institute, San Diego, CA, USA). Significant peaks in the MS spectra were matched to degradation products of P26 based on their m/z.

The subject of data set [3] is MMP8, MMP1, α-amylase, and lysozyme. Description: Peptide stability in artificial saliva with individual salivary enzymes (HPLC peak area). The data set is classed as in vitro ADME. Particulars: individual enzymes at native concentrations, peptide 0.2 mg/mL, 30 min, 37 °C, RP-HPLC C18 peak area, triplicate. As for the experimental part:
as §1

Data set [4] relates to MMP1, MMP8, α-amylase, and lysozyme. In words: Peptide stability in artificial saliva with all salivary enzymes simultaneously (HPLC). The data set is classed as in vitro ADME. Particulars: all enzymes at native concentrations, 30 min, 37 °C, n = 3. As for the experimental part: as §1

Experimental findings from PMC11853660 (Biomimetics, 2025) are described below.

Where a SMILES comes first, the peptide text is derived from it. [ ]: non-standard residue; d: D form. pS = N[C@@H](COP(=O)(O)O)C(=O)O

For MPLPS(PHOS)YEVLTPLKWPSTDKTKREEVD, in data set [1], the cleaved bond result is “M-P and V-D and E-E and L-P and P-S(PHOS)”.

In the case of `CSCC[C@H](N)C(=O)N1CCC[C@H]1C(=O)N[C@@H](CC(C)C)C(=O)N1CCC[C@H]1C(=O)N[C@@H](COP(=O)(O)O)C(=O)N[C@@H](Cc1ccc(O)cc1)C(=O)N[C@@H](CCC(=O)O)C(=O)N[C@H](C(=O)N[C@@H](CC(C)C)C(=O)N[C@H](C(=O)N1CCC[C@H]1C(=O)N[C@@H](CC(C)C)C(=O)N[C@@H](CCCCN)C(=O)N[C@@H](Cc1c[nH]c2ccccc12)C(=O)N1CCC[C@H]1C(=O)N[C@@H](CO)C(=O)N[C@H](C(=O)N[C@@H](CC(=O)O)C(=O)N[C@@H](CCCCN)C(=O)N[C@H](C(=O)N[C@@H](CCCCN)C(=O)N[C@@H](CCCNC(=N)N)C(=O)N[C@@H](CCC(=O)O)C(=O)N[C@@H](CCC(=O)O)C(=O)N[C@H](C(=O)N[C@@H](CC(=O)O)C(=O)O)C(C)C)[C@@H](C)O)[C@@H](C)O)[C@@H](C)O)C(C)C` [P26] (H-MPLP[pS]YEVLTPLKWPSTDKTKREEVD-OH), the “degradation products at diluted amylase versus native ratio” value in the data set with α-amylase (α-amylase 23.87 U/mL (5× dilution, enzyme to substrate 1:10) compared with 1:2, artificial saliva, HPLC spectra) is recorded as “lesser degradation products”. Besides, the “degradation by amylase relative to other enzymes” value in the data set on α-amylase (α-amylase 119 U/mL (enzyme to substrate 1:2), artificial saliva, 5 h, HPLC) is “highest levels of degradation amongst all the enzymes used”. In data set [2], the “self-degradation of the peptide without enzymes” value is given as “substantially resistant to self-degradation”. Moreover, the “peptide substrate remaining (% area of initial HPLC peak at t = 0)” value in data set [3] is 90–100%. The “peptide stability, P26 versus P26 with CS” value in data set [4] was “comparably stable”.
